US5360790A, “Method and formulations for the therapy of acute renal failure” (The Regents of the University of Michigan, priority 1993, dated 1994)

Experiments:
Assay type in all cases: in vivo, rat
renal tubule cells [1] = assay: Histoautoradiography of 3H-thymidine labeled kidney cells after renal ischemia
Description: To localize and identify the cells incorporating the radiolabeled thymidine within the kidney, histoautoradiography of kidney samples was also accomplished. For quantitative evaluation, a computerized operator-interactive system was used. Sections were examined at 276 magnification, and 10-15 fields were counted in the cortex and outer and inner stripes of the outer medulla in each section for an individual animal. The cell type of the labeled cells was identified as either tubular or interstitial.
At varying time points after reperfusion, measurements of ^3 H-thymidine incorporation into the kidneys and BUN, and serum creatinine levels were determined.

Male Sprague-Dawley rats [2] = assay: BUN and serum creatinine time course after HgCl2 (nephrotoxic acute renal failure)
Description: (§1) At time intervals of 24, 30, 48, and 72 hours after toxin administration, [^3 H] thymidine incorporation into renal cortex, as well as blood urea nitrogen (BUN) and serum creatinine levels, were determined with methods known and practiced in the art. To obtain a complete time course for the BUN and serum creatinine levels, some animals were allowed to recover for as long as 12 days after HgCl2 administration, and blood samples were obtained daily for BUN and serum creatinine levels.

renal tubule cells [3] = assay: Histoautoradiography of [3H] thymidine labeled kidney cells after HgCl2
Description: as §1
Histoautoradiographic studies were performed to determine the type of cells labeled with [^3 H] thymidine after HgCl2 exposure. Kidney sections from rats at 48 or 72 h after toxic administration were used for histoautoradiographic analysis. Labeling was confined to the nuclei. On average, 97.9% of the labeled cells were tubule cells, and 2.1% of the labeled cells were interstitial cells in the 60 examined fields. In control rats undergoing sham injection, 98.4% of labeled cells were tubule, and 1.6% were interstitial in 90 examined fields.

Male Sprague-Dawley rats [4] = assay: Histological score of tubule cell injury after HgCl2; details: 24 h after HgCl2; n=120 fields from 3 animals; P=NS vs non-EGF-treated
Description: Histological grading was assessed at 24 h, a time at which the peak of HgCl2 -induced toxic renal injury occurs and just before the accelerated regeneration repair phase. At 24 h, the mean histological scores in the inner cortex and outer stripe were 2.92±0.13 and 4.70±0.07, respectively, in the nephrotoxic non-EGF-treated rats vs. scores of 3.25±0.18 and 4.65±0.08, respectively, in the nephrotoxic EGF-treated rats (n=120 fields from 3 animals in each treatment group, P=NS for both scores). At 24 h after HgCl2, extensive necrosis was present in proximal tubule segments with no difference in the degree of tubule cell necrosis observed histologically between the EGF-treated and nontreated groups receiving HgCl2.

renal tubule cells [5] = assay: 3H-thymidine incorporation into kidneys after bilateral renal artery clamping (ischemic acute renal failure)
Description: (§2) Sprague Dawley rats (250-325 g) were anesthetized with a short-acting barbiturate, the abdominal cavity was exposed, and both left and right renal arteries were identified and clamped for 30 minutes. The clamps were released and perfusion to the kidneys reestablished. At time intervals of 24, 48, and 72 hours after ischemia and reperfusion, ^3 H-thymidine incorporation into kidneys, as well as blood urea nitrogen (BUN) and serum creatinine levels. To obtain a complete time course, some animals were allowed to recover for 7 days after renal ischemia and blood samples were then obtained daily for BUN or serum creatinine measurements.
(§3) This dose of EGF is substantially lower than those employed in previously reported studies that administered EGF systemically. At varying time points after reperfusion, measurements of ^3 H-thymidine incorporation into the kidneys and BUN, and serum creatinine levels were determined.

renal tubule cells [6] = assay: [3H] thymidine incorporation into renal cortex after HgCl2 (nephrotoxic acute renal failure); details: for [3H] Thymidine Incorporation: EGF 20 μg sc 2-4 h after nephrotoxin
Description: as §1

Sprague Dawley rats = assay: BUN and serum creatinine time course after renal ischemia; details: single dose EGF within 1-1.5 hours of reperfusion after 30 minutes bilateral renal ischemia; entire 7-day period
Description: as §2, §3

[7] = EGF-treated postischemic rats at 24 hours
[8] = postischemic kidneys at 24 hours after EGF administration
[9] = peak at 3 days after HgCl2 injection, EGF 20 μg sc, P<0.001 vs nontreated
[10] = EGF-treated rats, 48 h after HgCl2 injection, 60 fields

epidermal growth factor [EGF]
labeled cells identified as interstitial cells (renal tubule cells [1]; [7]): 1.9% | labeled cells identified as tubule (renal tubule cells [1]; [7]): 98.1% | labeled interstitial cells, absolute number (renal tubule cells [1]; [7]): 61 | labeled tubule cells, absolute number (renal tubule cells [1]; [7]): 3,183 | distribution of labeled tubule cells: cortex (renal tubule cells [1]; [8]): 27% | distribution of labeled tubule cells: outer stripe of the outer medulla (renal tubule cells [1]; [8]): 68% | return to near normal BUN and serum creatinine, earlier than in non-EGF-treated animals (Male Sprague-Dawley rats [2]; after HgCl2): 4 days | return to near normal BUN and serum creatinine levels (Male Sprague-Dawley rats [2]; day after HgCl2 administration): 8 days | peak BUN level (Male Sprague-Dawley rats [2]; [9]): 213 ± 23 mg/dL | peak serum creatinine level (Male Sprague-Dawley rats [2]; [9]): 6.54 ± 0.72 mg/dL | number of tubule cells incorporating [3H] thymidine (renal tubule cells [3]; 24 h after HgCl2, renal cortex and outer medulla, n=3 rats and 60 fields, P<0.02 vs nontreated): 7.5±1.8 labeled cells/field | number of labeled tubule cells (renal tubule cells [3]; 48 h after HgCl2, renal cortex and outer medulla, n=3 rats and 60 fields): 20.9±2.1 cells/field | labeled cells identified as interstitial cells (renal tubule cells [3]; [10]): 3.7% | labeled cells identified as tubule (renal tubule cells [3]; [10]): 96.3% | mean histological score, inner cortex (Male Sprague-Dawley rats [4]): 3.25±0.18 | mean histological score, outer stripe (Male Sprague-Dawley rats [4]): 4.65±0.08 | 3H-thymidine incorporation, sham ischemia (renal tubule cells [5]; EGF treatment of rats undergoing sham ischemia, P=NS, n=3): did not show any increase | renal thymidine incorporation compared with control nontreated ischemia values (renal tubule cells [5]; single dose EGF 1-1.5 hours after reperfusion, 24, 48, 72 hours of reperfusion after 30 minutes bilateral renal artery clamping): significantly increased renal thymidine incorporation | [3H] Thymidine Incorporation (renal tubule cells [6]; 0 h, rats given 5 mg/kg HgCl2, mean (SE 0.03 printed)): 0.12 dpm × 10^4 /mg DNA | [3H] Thymidine Incorporation (renal tubule cells [6]; 24 h after 5 mg/kg HgCl2, mean (SE 1.28 printed)): 13.81 dpm × 10^4 /mg DNA | [3H] Thymidine Incorporation (renal tubule cells [6]; 48 h after 5 mg/kg HgCl2, mean (SE 19.52 printed)): 80.52 dpm × 10^4 /mg DNA | [3H] Thymidine Incorporation (renal tubule cells [6]; 72 h after 5 mg/kg HgCl2, mean (SE 13.80 printed)): 116.24 dpm × 10^4 /mg DNA | renal thymidine incorporation compared with non-EGF-treated animals receiving the nephrotoxin (renal tubule cells [6]; single dose EGF 2 or 4 h after HgCl2, at 24, 30, 48 and 72 h): higher rates of renal thymidine incorporation | BUN levels of EGF-treated animals (Sprague Dawley rats): significantly lower | creatinine levels of EGF-treated animals (Sprague Dawley rats): significantly lower
